{"source": "patent US11766478B2", "about": "“Methods for enhancing antigen-specific immune responses” (priority 2015, dated 2023)", "tested_on": "TC-1 tumors", "assay": "In vivo tumor treatment experiment, TC-1 tumor-bearing mice (tumor volume, survival)", "design": "species or system C57BL/6 mice", "conditions": "combinatorial treatment with cisplatin; compared to cisplatin alone", "procedure": "Left panel is representative flow cytometry analysis. […] IgG antibody was used as a control. […] Left panel is representative flow cytometry.\nFor in vivo tumor treatment experiment using only protein, 1×10^5 TC-1 cells were injected subcutaneously into C57BL/6 mice (10 per group). After 3 days, 100 μg of each protein was injected intravenously three times with 3 day intervals. Mice were monitored for tumor growth by palpation and inspection twice a week. For in vivo combined tumor treatment experiments, 1×10^5 TC-1 cells or 5×10^5 CT 26 cells were subcutaneously injected into C57BL/6 mice (10 per group) or BALB/c mice. After 5 days, cisplatin (5 mg/kg) or saline (control) was intraperitoneally injected two times at a 3 day interval. 6 days after tumor challenge, mice received 100 μg of protein each, intravenously injected three times with 3 day intervals."}
{"substance": "AnnexinV: Annexin V protein alone, purified from E. coli, used as control", "values": [{"measurement": "therapeutic anti-tumor effect in TC-1 tumor bearing mice", "result": "did not generate a significantly better therapeutic anti-tumor effect"}]}
